Measurements from publication PMC6433685, “Histone deacetylase inhibitor LMK235 attenuates vascular constriction and aortic remodelling in hypertension” (Journal of Cellular and Molecular Medicine, 2019).

How the values were obtained:
[1] = system: bisphenol A‐induced hypertension; design: method as in PMID 25103225; conditions: cited from earlier work
HUVECs = assay: Nitric oxide production in HUVECs (DAF-FM DA fluorescence); assay type: cell-based, Human; conditions: 250 μmol/L, 24 h
Experimental: A10 vascular smooth muscle cells (VSMCs) were incubated with Dulbecco's modified Eagle medium (DMEM) with 4500 mg/L glucose containing 10% foetal bovine serum (FBS). Passages were carried out every 2 or 3 days. VSMCs were maintained in DMEM in the presence of 10% FBS with low glucose (1000 mg/L). Human umbilical vein endothelial cells (HUVECs) were obtained from Gibco (Waltham, MA, USA). HUVECs were grown in an endothelial cell basal medium (EBM) with EGM‐2 bullet kit (Lonza, Walkersville, MD) and maintained at 37°C under 5% CO2. Cells were cultured for 5‐7 passages.
We used a nitric oxide‐sensitive fluorescence probe, 4‐amino‐5‐methylamino‐2′,7′‐difluorescein diacetate (DAF‐FM DA, Cayman), for nitric oxide detection. HUVECs were seeded on coverslips in 12‐well plates (1.5 × 10^5/mL). Cells, serum‐starved with EBM for 16 hour, were treated with LMK235 (1 μmol/L) or L‐NAME (250 μmol/L) for 24 hour and incubated with DAF‐FM DA (2.5 μmol/L) for 45 minutes. Next, the cells were fixed with 70% ethanol for 45 minutes and mounted using Prolog Gold antifade reagent and DAPI (Invitrogen, USA).

rat mesenteric arteries = assay: Isometric tension: relaxation of U46619-induced contraction in rat mesenteric artery rings; design: species or system Sprague‐Dawley rats; conditions: mesenteric artery rings pretreated with 100 μmol/L for 30 minutes
Description: Male Sprague‐Dawley rats were purchased from Orient Bio (Gyeonggi‐do, South Korea). The thoracic aortas and mesenteric arteries were excised and immersed in an ice‐cold, modified Krebs solution composed of NaCl (115 mmol/L), KCl (4.7 mmol/L), CaCl2 (2.5 mmol/L), MgCl2 (1.2 mmol/L), NaHCO3 (25 mmol/L), KH2PO4 (1.2 mmol/L) and dextrose (10 mmol/L). Mesenteric arteries are secondary branches of the main mesenteric trunk. The aortas and mesenteric arteries were cleaned by removing adherent connective tissue, soaked in the Krebs‐bicarbonate solution and cut into four ring segments (3.5 mm in length), as described previously.14 Some rings were denuded of endothelium by gently rubbing the internal surface with the edge of the forceps. Each aortic ring was suspended in a water‐jacketed organ bath (6 mL) maintained at 37°C and aerated with a mixture of 95% O2 and 5% CO2. Each ring was connected to an isometric force transducer (Danish Myo Technology, Skejbyparken, Aarhus N, Denmark). Rings were stretched to an optimal resting tension of 2.0 g, which was maintained throughout the experiment. Each ring was equilibrated in the organ bath solution for 90 minutes before the experiment involving the contractile response to 50 mmol/L of KCl addition. […]

[2] = system: angiotensin II‐induced hypertensive mice; conditions: cited from earlier work; for elevated BP: angiotensin II-induced hypertensive mice
SHRs = conditions: cited from earlier work

COc1ccc(S(=O)(=O)N(CCO)c2ccccc2CN(C)C/C=C/c2ccc(Cl)cc2)cc1 [KN 93]
bisphenol A-induced hypertension [1]: inhibit

COC(=O)[C@@H](N)CCCNC(N)=N[N+](=O)[O-] [L‐NAME, reference compound]
LMK235-induced increase of nitric oxide production (HUVECs): reduced
LMK235-induced vascular relaxation (rat mesenteric arteries): inhibited vascular relaxation

Cn1c(/C=C/C(=O)NO)ccc1/C=C/C(=O)c1cccc(F)c1 [MC1568]
vascular hypertrophy and hyperplasia ([2]; angiotensin II-induced hypertensive mice and VSMCs): attenuates
elevated BP [2]: lowered elevated BP

CC(/C=C/C(=O)NO)=C\[C@@H](C)C(=O)c1ccc(N(C)C)cc1 [TSA, Trichostatin A]
augmented angiotensin II-induced contraction in the mesenteric artery (SHRs; SHRs): reversed
systolic BP (SHRs; SHRs): decreased systolic BP

CN1CCc2c(c3ccccc3n2Cc2ccc(C(=O)NO)cc2)C1 [tubastatin A]
elevated BP [2]: not

CCCC(CCC)C(=O)O [valproic acid]
BP (SHRs; SHRs or DOCA-salt-induced hypertensive rats): attenuated BP
cardiac AT1 mRNA levels (SHRs; SHRs): reduced
